From ChEMBL document CHEMBL1142810, “Discovery of a potent and selective 5-ht5A receptor antagonist by high-throughput chemistry” (Bioorg Med Chem Lett, 2005) come the findings set out here.

Test [1] addresses T1, 5-hydroxytryptamine receptor 5A (Homo sapiens, UniProt P47898). The experiment in a line: Binding affinity towards human 5-hydroxytryptamine receptor 5A expressed in CHO cells using the radioligand [3H]LSD. Format: cell-based.
In another test the target is D(2) dopamine receptor (Homo sapiens, UniProt P14416). As to the kind of experiment: Binding affinity towards human dopamine receptor D2 expressed in CHO cells using the radioligand [125I]iodosulpiride. Format: cell-based.
The target of the next test is T2, D(4) dopamine receptor (Homo sapiens, UniProt P21917).
T2 sequence (P21917 whole entry): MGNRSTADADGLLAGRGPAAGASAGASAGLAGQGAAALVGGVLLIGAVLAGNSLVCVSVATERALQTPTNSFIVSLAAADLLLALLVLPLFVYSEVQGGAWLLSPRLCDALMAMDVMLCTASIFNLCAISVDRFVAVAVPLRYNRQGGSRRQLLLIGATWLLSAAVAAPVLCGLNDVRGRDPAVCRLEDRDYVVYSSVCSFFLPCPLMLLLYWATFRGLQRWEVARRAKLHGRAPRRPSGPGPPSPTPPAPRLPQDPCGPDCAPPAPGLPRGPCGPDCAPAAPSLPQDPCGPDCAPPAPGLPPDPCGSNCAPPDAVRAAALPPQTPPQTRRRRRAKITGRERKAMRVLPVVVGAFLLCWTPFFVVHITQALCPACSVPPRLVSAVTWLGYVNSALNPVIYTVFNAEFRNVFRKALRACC
The experiment in a line: Binding affinity towards human dopamine receptor D4 expressed in CHO cells using the radioligand [125I]iodosulpiride. Format: cell-based.

For test [2], the target named is T3, Alpha-1B adrenergic receptor (Homo sapiens, UniProt P35368).
T3 sequence (P35368 whole entry): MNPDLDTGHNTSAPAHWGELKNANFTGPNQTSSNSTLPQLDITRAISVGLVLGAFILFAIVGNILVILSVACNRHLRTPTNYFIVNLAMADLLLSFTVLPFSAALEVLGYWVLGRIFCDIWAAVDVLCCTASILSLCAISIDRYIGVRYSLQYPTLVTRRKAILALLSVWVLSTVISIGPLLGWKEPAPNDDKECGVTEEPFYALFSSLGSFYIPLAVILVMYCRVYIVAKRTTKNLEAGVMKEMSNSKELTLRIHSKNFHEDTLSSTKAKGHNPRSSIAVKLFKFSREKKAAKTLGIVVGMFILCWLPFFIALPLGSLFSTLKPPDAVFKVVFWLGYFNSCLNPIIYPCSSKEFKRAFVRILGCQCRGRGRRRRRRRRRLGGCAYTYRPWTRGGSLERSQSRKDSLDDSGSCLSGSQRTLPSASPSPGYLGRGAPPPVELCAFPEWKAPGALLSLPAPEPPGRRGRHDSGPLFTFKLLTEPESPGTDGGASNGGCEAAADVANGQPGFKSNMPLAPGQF
The experiment in a line: Binding affinity towards human alpha-1B-adrenergic receptor expressed in CHO cells using the radioligand [3H]prazosin. Type of test: cell-based.

The target of test [3] is T4, 5-hydroxytryptamine receptor 1A (Homo sapiens, UniProt P08908).
T4 sequence (P08908 whole entry): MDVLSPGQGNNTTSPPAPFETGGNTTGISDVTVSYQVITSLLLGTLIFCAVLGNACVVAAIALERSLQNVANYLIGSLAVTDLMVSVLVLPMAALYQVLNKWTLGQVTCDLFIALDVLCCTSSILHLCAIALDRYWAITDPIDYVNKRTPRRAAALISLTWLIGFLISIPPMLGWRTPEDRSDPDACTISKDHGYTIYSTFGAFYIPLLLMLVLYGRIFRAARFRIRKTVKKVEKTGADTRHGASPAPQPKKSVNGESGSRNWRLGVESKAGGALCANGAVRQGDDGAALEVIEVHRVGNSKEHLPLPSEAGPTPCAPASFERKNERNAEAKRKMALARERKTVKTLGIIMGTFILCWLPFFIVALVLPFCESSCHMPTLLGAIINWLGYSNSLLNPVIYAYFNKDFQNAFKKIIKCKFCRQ
As to the kind of experiment: Binding affinity towards human 5-hydroxytryptamine receptor 1A expressed in HEK 293 cells using the radioligand [3H]8-OH-DPAT. Type of test: cell-based, HEK293.

The target of the next test is D(3) dopamine receptor (Homo sapiens, UniProt P35462). As to the kind of experiment: Binding affinity towards human dopamine receptor D3 expressed in CHO cells using the radioligand [125I]iodosulpiride. Type of test: cell-based.
Test [4] addresses 5-hydroxytryptamine receptor 7 (Homo sapiens, UniProt P34969). The experiment in a line: Binding affinity towards human 5-hydroxytryptamine receptor 7 expressed in HEK 293 cells using the radioligand [3H]5-CT. Type of test: cell-based, HEK293.
Test [5] concerns the target 5-hydroxytryptamine receptor 2B (Homo sapiens, UniProt P41595). As to the kind of experiment: Binding affinity towards human 5-hydroxytryptamine receptor 2B expressed in HEK 293 cells using the radioligand [3H]5-HT. Type of test: cell-based, HEK293.
For test [6], the target named is 5-hydroxytryptamine receptor 1B (Homo sapiens, UniProt P28222). The experiment in a line: Binding affinity towards human 5-hydroxytryptamine receptor 1B expressed in CHO cells using the radioligand [3H]5-HT. Type of test: cell-based.
Test [7] deals with 5-hydroxytryptamine receptor 1D (Homo sapiens, UniProt P28221). As to the kind of experiment: Binding affinity towards human 5-hydroxytryptamine receptor 1D expressed in CHO cells using the radioligand [3H]5-HT. Format: cell-based.
For test [8], the target named is 5-hydroxytryptamine receptor 2A (Homo sapiens, UniProt P28223). As to the kind of experiment: Binding affinity towards human 5-hydroxytryptamine receptor 2A expressed in HEK 293 cells using the radioligand [3H]ketanserin. Format: cell-based, HEK293.
Test [9] addresses 5-hydroxytryptamine receptor 6 (Homo sapiens, UniProt P50406). The experiment in a line: Binding affinity towards human 5-hydroxytryptamine receptor 6 expressed in HeLa cells using the radioligand [3H]LSD. Type of test: cell-based.
Test [10] addresses T5, 5-hydroxytryptamine receptor 1F (Homo sapiens, UniProt P30939).
T5 sequence (P30939 whole entry): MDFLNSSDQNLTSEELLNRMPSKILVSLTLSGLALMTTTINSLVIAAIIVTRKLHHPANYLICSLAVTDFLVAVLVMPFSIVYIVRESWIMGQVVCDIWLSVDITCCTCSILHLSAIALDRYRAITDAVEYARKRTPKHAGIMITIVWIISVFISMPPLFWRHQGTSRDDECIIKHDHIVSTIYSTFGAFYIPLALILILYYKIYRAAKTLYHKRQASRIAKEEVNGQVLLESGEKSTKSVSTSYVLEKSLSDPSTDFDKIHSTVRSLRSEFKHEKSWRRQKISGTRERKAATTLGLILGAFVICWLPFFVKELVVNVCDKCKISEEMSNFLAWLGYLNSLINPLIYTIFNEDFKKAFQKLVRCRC
The experiment in a line: Binding affinity towards human 5-hydroxytryptamine receptor 1F expressed in HEK 293 cells using the radioligand [3H]5-HT. Type of test: cell-based, HEK293.

The target of test [11] is T6, 5-hydroxytryptamine receptor 2C (Homo sapiens, UniProt P28335).
T6 sequence (P28335 whole entry): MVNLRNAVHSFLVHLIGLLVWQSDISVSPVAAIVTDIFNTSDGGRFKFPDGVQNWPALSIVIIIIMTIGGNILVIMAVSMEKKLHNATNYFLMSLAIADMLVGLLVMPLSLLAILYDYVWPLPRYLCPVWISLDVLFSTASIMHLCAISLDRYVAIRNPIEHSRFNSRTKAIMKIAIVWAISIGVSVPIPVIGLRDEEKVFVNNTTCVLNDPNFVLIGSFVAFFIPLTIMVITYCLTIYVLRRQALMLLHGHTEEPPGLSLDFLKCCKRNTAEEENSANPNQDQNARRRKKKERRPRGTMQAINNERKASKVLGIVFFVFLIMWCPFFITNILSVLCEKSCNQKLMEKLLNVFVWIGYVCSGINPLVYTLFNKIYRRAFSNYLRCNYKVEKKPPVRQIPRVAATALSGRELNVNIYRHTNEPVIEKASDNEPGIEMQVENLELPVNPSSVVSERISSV
The experiment in a line: Binding affinity towards human 5-hydroxytryptamine receptor 2C expressed in HEK 293 cells using the radioligand [3H]mesulergine. Format: cell-based, HEK293.

The target in test [12] is 5-hydroxytryptamine receptor 1E (Homo sapiens, UniProt P28566). The experiment in a line: Binding affinity towards human 5-hydroxytryptamine receptor 1E expressed in HEK 293 cells using the radioligand [3H]5-HT. Format: cell-based, HEK293.
The target of test [13] is T1, 5-hydroxytryptamine receptor 5A. The experiment in a line: 5-CT-induced stimulation of [35S]GTP-gamma-S, binding to 5-Hydroxytryptamine receptor 5A expressed in HEK 293 cells with compound at 1 uM. Format: functional, cell-based. As to conditions: HEK293.

Sequence of 5-hydroxytryptamine receptor 2B (P41595 whole entry): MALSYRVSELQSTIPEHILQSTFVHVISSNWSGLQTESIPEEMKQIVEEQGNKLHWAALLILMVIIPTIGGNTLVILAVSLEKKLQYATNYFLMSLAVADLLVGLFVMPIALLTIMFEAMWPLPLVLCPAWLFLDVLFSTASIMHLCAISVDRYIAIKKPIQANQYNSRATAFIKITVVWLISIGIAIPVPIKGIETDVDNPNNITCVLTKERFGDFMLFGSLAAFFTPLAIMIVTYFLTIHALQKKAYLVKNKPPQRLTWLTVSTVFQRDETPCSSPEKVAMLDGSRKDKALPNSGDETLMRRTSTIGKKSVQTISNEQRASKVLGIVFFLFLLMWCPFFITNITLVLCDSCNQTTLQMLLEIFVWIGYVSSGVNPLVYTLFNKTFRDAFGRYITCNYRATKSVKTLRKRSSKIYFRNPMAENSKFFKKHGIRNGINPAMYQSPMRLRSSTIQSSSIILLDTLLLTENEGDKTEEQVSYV
T1 sequence (P47898 whole entry): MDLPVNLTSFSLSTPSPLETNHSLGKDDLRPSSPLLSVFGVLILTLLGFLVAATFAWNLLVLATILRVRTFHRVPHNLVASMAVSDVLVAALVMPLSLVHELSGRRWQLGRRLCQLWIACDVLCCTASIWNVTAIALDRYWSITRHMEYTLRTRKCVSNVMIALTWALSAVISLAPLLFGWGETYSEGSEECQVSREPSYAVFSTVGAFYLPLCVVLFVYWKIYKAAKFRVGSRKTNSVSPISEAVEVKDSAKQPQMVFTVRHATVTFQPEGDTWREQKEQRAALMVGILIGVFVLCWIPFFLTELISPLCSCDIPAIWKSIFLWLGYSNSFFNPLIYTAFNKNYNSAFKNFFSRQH
Sequence of 5-hydroxytryptamine receptor 1D (P28221 whole entry): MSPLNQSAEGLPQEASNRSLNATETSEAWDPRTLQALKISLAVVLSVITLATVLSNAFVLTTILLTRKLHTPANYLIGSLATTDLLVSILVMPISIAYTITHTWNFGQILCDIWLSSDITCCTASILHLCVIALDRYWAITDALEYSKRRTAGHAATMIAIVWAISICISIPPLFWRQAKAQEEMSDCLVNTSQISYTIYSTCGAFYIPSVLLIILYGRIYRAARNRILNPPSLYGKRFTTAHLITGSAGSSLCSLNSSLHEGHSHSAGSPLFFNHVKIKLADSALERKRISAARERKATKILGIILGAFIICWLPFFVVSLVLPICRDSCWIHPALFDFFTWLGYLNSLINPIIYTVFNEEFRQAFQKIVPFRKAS
Sequence of 5-hydroxytryptamine receptor 2A (P28223 whole entry): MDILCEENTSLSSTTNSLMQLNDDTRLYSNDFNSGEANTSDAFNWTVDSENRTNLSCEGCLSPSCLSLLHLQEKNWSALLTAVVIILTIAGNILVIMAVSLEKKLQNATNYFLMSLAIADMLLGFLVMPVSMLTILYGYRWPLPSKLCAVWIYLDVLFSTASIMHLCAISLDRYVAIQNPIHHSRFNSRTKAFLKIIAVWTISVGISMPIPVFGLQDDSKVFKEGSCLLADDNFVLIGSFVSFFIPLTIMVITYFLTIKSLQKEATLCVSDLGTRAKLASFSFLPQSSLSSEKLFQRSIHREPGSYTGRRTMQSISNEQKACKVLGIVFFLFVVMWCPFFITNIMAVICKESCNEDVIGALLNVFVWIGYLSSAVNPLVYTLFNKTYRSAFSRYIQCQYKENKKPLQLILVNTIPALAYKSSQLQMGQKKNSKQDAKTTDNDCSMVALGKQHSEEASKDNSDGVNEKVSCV
Sequence of 5-hydroxytryptamine receptor 1B (P28222 whole entry): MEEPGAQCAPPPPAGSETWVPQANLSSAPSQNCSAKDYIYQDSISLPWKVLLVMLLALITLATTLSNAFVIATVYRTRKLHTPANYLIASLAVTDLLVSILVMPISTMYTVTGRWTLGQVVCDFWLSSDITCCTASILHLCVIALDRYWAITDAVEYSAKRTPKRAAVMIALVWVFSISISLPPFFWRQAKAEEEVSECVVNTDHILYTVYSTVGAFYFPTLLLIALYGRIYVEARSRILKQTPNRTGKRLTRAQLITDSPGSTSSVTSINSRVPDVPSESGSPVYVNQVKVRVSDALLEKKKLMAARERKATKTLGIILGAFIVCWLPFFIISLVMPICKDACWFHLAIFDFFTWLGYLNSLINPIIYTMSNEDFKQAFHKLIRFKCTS
Sequence of 5-hydroxytryptamine receptor 6 (P50406 whole entry): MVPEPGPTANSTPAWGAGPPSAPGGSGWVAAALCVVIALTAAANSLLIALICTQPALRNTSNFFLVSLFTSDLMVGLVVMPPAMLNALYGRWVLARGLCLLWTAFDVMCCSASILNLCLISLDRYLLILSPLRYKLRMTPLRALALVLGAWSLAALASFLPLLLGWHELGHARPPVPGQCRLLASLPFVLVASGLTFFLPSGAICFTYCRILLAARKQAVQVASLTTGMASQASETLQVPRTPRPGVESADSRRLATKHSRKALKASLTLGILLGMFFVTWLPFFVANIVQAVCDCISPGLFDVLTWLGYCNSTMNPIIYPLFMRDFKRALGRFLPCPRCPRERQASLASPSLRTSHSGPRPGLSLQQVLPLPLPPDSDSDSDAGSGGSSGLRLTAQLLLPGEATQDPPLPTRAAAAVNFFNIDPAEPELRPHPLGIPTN
Sequence of 5-hydroxytryptamine receptor 1E (P28566 whole entry): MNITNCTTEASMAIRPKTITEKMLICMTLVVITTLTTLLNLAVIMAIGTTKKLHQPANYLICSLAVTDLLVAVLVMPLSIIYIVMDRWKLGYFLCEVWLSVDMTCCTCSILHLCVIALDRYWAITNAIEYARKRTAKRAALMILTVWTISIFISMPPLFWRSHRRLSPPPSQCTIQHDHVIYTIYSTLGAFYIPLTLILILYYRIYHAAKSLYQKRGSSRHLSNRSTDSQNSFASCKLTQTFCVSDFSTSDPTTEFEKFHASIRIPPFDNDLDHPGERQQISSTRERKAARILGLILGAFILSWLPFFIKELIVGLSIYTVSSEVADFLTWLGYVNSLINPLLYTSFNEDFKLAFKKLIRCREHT
Sequence of D(2) dopamine receptor (P14416 whole entry): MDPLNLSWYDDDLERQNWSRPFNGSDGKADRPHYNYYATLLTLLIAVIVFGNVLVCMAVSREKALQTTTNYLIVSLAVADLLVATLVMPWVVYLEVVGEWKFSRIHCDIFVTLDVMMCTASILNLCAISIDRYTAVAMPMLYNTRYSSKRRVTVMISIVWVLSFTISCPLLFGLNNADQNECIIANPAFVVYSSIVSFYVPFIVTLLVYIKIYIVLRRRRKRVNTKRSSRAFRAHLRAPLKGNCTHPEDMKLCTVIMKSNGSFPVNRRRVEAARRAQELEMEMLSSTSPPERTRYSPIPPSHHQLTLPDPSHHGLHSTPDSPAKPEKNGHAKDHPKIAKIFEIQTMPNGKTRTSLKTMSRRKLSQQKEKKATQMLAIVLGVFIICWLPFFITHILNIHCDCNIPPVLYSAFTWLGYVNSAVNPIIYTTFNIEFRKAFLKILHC
Sequence of D(3) dopamine receptor (P35462 whole entry): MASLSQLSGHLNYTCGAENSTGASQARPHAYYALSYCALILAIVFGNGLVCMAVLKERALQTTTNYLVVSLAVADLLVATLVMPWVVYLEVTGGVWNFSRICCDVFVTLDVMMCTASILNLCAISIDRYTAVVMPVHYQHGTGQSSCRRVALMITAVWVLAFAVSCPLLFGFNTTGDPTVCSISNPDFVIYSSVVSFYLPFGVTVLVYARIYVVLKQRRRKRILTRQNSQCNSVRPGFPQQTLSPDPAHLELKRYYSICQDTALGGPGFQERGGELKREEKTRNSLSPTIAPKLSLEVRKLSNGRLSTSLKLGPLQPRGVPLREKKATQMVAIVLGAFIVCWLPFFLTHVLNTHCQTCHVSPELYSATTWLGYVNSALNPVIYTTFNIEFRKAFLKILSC
Sequence of 5-hydroxytryptamine receptor 7 (P34969 whole entry): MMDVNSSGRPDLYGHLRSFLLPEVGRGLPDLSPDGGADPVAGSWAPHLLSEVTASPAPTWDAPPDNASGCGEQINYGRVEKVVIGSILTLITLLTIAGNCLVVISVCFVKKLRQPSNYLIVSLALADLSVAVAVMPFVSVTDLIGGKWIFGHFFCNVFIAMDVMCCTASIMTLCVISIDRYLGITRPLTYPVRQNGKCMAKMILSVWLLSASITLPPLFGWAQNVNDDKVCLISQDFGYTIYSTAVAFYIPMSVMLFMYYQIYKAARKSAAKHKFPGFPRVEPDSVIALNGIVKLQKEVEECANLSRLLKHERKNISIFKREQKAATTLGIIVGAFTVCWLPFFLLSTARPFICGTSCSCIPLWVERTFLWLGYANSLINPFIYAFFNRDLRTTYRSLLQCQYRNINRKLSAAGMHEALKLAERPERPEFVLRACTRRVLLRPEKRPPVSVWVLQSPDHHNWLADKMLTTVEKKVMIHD

`CN(C)CCN(Cc1ccc(-c2ccc(CNCCc3ccccc3)cn2)cc1)C(=O)CCC1CCCC1` gave a Ki in [1] of 12.6 nM.
With `O=C(/C=C/c1ccccc1)N(Cc1ccc(-c2ccc(CNCCc3ccccc3)cc2)cc1)Cc1cccnc1`, the Ki at D(2) dopamine receptor was 1260 nM; at D(4) dopamine receptor it was 1580 nM; in test [2] it was 316 nM; in [3] it was 1000 nM; on D(3) dopamine receptor, 1580 nM; in test [4], 1260 nM. The inhibitory constant (Ki) is 50.1 nM in test [1]; 2000 nM in [5]; 631 nM in test [6]; 1260 nM in [7]; 794 nM in test [8]; more than 2000 nM in test [9]. In addition, the values for the Ki in [10], in test [11] and in test [12] were more than 1000 nM, 1000 nM and more than 10000 nM, respectively.
In test [1], `CN(C)CCN(Cc1ccc(-c2ccc(CNCCc3ccccc3)cc2)cc1)S(=O)(=O)/C=C/c1ccccc1` gave an inhibition constant Ki of 251 nM.
The same measure, in the same setting: with `CN(C)CCN(Cc1ccc(-c2ccc(CNCCc3ccccc3)cc2)nc1)C(=O)/C=C/c1ccccc1` the figure was 25.1 nM; with `O=C(/C=C/c1ccccc1)N(Cc1ccc(-c2ccc(CNCc3ccc4c(c3)OCO4)cc2)cc1)Cc1cccnc1`, 1000 nM; with `c1ccc(CCNCc2ccc(-c3ccc(CNC4CCN(Cc5ccccc5)CC4)cc3)cc2)cc1`, 126 nM.
Same read-out and setting: with `CN(C)CCN(Cc1ccc(-c2ccc(CNCCc3ccccc3)cc2)cc1)C(=O)c1ccccc1` the figure was 631 nM.
As for `CN(C)CCN(Cc1ccc(-c2ccc(CNCCc3ccccc3)cc2)cc1)C(=O)CCC1CCCC1` [listing 1 of 2 here], in [13], the negative-log Kb (pKb) stood at 8.
With `CN(C)CCN(Cc1ccc(-c2ccc(CNCCOc3ccccc3)cc2)cc1)C(=O)CCC1CCCC1`, the affinity in [1] corresponds to a Ki of 79.4 nM.
On to `CN(C)CCN(Cc1ccc(-c2ccc(CNCCc3ccccc3)cc2)cc1)C(=O)CCC1CCCC1` [listing 2 of 2 here], for which the Ki at D(2) dopamine receptor was 1260 nM; on D(4) dopamine receptor, 794 nM; in [2] it was 316 nM; in test [3] it was 501 nM; on D(3) dopamine receptor, 631 nM; in [4], 3980 nM. Besides, the inhibition constant Ki is 6.31 nM in test [1]; 1000 nM in test [5]; 316 nM in test [6]; 398 nM in test [7]; 794 nM in [8]; 3980 nM in test [9]. For the same molecule, the values for the inhibition constant (Ki) in [10], in test [11] and in [12] were more than 10000 nM, 398 nM and more than 10000 nM, respectively.
The molecule `O=C(CCC1CCCC1)N(Cc1ccc(-c2ccc(CNCCc3ccccc3)cc2)cc1)CC1CCCCN1` (stereo not given) gave an inhibition constant Ki in [1] of 25.1 nM.
Same read-out and setting: with `COc1cccc(CCN(Cc2ccc(-c3ccc(CNCCc4ccccc4)cc3)cc2)C(=O)/C=C/c2ccccc2)c1` the figure was 501 nM.
Turning to `CN(C)CCN(Cc1ccc(-c2ccc(CNCCc3ccccc3)cc2)cc1)C(=O)C1CC1c1ccccc1` (stereo not given), affinity in [1] was put at a Ki of 79.4 nM.
As for `CN(C)CCN(Cc1ccc(-c2ccc(CNCCc3ccccc3)cn2)cc1)C(=O)/C=C/c1ccccc1`, in test [1], the affinity, expressed as Ki, was 5.01 nM.
Same read-out and setting: under `O=C(c1ccc2c(c1)OCO2)N(Cc1ccc(-c2ccc(CNCCc3ccccc3)cc2)cc1)Cc1cccnc1` stands 200 nM.
As for `COCCNCc1ccc(-c2ccc(CN(Cc3cccnc3)C(=O)/C=C/c3ccccc3)cc2)cc1`, affinity in test [1] was put at a Ki of 6310 nM.
On the same count and under the same terms, with `CN(C)CCN(Cc1ccc(-c2ccc(CNCCc3ccccc3)cc2)cc1)C(=O)Nc1ccccc1` the figure was 398 nM.
As to `CN(C)CCN(Cc1ccc(-c2ccc(CNCCc3ccccc3)cc2)cc1)C(=O)/C=C/c1ccccc1`, the inhibition constant (Ki) on D(2) dopamine receptor is 794 nM; on D(4) dopamine receptor, 1260 nM; in test [2], 200 nM; in test [3], 794 nM; at D(3) dopamine receptor it was 1000 nM; in test [4] it was 1000 nM. The inhibition constant Ki in test [1] was 25.1 nM; in test [5] it was 1260 nM; in test [6] it was 631 nM; in test [7], 158 nM; in test [8], 398 nM; in [9], more than 7940 nM. In addition, the inhibition constant (Ki) in test [10] was more than 10000 nM; in test [11] it was 631 nM; in [12] it was more than 10000 nM.
`CN(C)CCN(Cc1ccc(-c2ccc(CNCCc3ccccn3)cc2)cc1)C(=O)CCC1CCCC1` gave a Ki in [1] of 31.6 nM.
Still for that read-out and setting: with `CN(C)CCN(Cc1ccc(-c2ccc(CNCCc3ccccc3)cc2)nc1)C(=O)CCC1CCCC1` the figure was 31.6 nM; with `CN(C)CCN(Cc1ccc(-c2ccc(CN)cc2)cc1)C(=O)CCC1CCCC1`, 3160 nM.
On to `c1ccc(CCNCc2ccc(-c3cccc(CNC4CCN(Cc5ccccc5)CC4)c3)cc2)cc1`, for which, in [1], the inhibition constant (Ki) was 200 nM.
Same read-out and setting: with `CN(C)CCN(Cc1ccc(-c2ccc(CNC3Cc4ccccc4C3)cc2)cc1)C(=O)CCC1CCCC1` the figure was 251 nM.
